This note sets out measurements from ChEMBL document CHEMBL1201862, “PubChem BioAssay data set” (2004).

Holding throughout (experiment): DTP human tumour cell line panel, 48 h
Experiment [1] deals with DMS-273.
The test system of experiment [2] is RXF 631.
Experiment [3] deals with M19-MEL.
The subject of experiment [4] is HOP-18.
The subject of experiment [5] is DMS-114.
The test system of experiment [6] is DLD-1.
Experiment [7] deals with SNB-78.
For experiment [8], the system named is XF498.
For experiment [9], the system named is KM-20L2.

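Method: 48-hour compound exposure of cells in 96-well plates, five concentrations, linear interpolation of endpoints. GI50: concentration for 50% inhibition of growth.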 Calls of active or inactive are those of the source. No stated cut-off is given here; in the data, active = GI50 up to about 1.1 µM and inactive = higher.

As a reminder, the GI50 is the concentration that inhibits growth by half. Turning to `CC1=CCCC2C(C=O)(C1)CC(C)C2(CO)CC/C(=C/CO)CO` (configuration not stated), the GI50 in [1], in experiment [2], in experiment [3], in experiment [4], in experiment [5] and in experiment [6] was > 100 µM (inactive) in each case. In addition, the GI50 in [7] is > 100 µM (inactive).
As to `COC(=O)[C@@]12C(=O)C=CC(=O)[C@@H]1C1C(=CC2COC(C)=O)O[C@@H]2OC3(CCCCC3)O[C@H]12` (some centres not stated), the GI50 was 13.2 µM (inactive) in experiment [8]; 8.61 µM (inactive) in experiment [1]; 21.9 µM (inactive) in [2]; 15.5 µM (inactive) in [3]; 10.3 µM (inactive) in [4]; 15.2 µM (inactive) in [9]. Moreover, the GI50 in experiment [5] is 4.92 µM (inactive); in experiment [6], 9.68 µM (inactive); in [7] it was 21.5 µM (inactive).
Turning to `COc1cc2c(cc1OC)C1c3ccccc3C(C#N)(C2)N(C(=O)c2ccccc2)C1O` (configuration not stated), the GI50 in experiment [8] is 24.8 µM (inactive); in experiment [1] it was 29.6 µM (inactive); in experiment [2] it was > 100 µM (inactive); in [3] it was > 100 µM (inactive); in experiment [4], > 100 µM (inactive); in experiment [9], 82.4 µM (inactive). Besides, the figures for the GI50 in experiment [5], in experiment [6] and in experiment [7] were 41.2 µM (inactive), 74.1 µM (inactive) and 37.1 µM (inactive), respectively.
`CC1(Cl)CC(C)(/C=C/Cl)C(Cl)CC1Cl` (configuration not stated): the GI50 in experiment [8] was 14.4 µM (inactive); in [2] it was 12.8 µM (inactive); in experiment [3] it was 18.7 µM (inactive); in experiment [9], 13.2 µM (inactive); in [6] it was 16.7 µM (inactive); in experiment [7], 20.9 µM (inactive).
For `O=C1C2C(C(=O)N1c1ccccc1)C1([N+](=O)[O-])C=C3c4ccccc4N(C(=O)c4ccccc4)C32C2C(=O)N(c3ccccc3)C(=O)C21` (configuration not stated), the GI50 in experiment [8], in [1], in [2], in experiment [3], in experiment [5] and in experiment [6] was > 100 µM (inactive) in each case. The GI50 in [7] is > 100 µM (inactive).
`Cc1cccc(C)c1NC(=O)CCC(=O)/N=C(\N)NC#N`: the GI50 in experiment [8], in [2], in experiment [3], in experiment [4], in experiment [9] and in experiment [5] was > 100 µM (inactive) throughout. In addition, the GI50 in [6] is > 100 µM (inactive).
Consider `CCN(c1n[n+]2c(-c3ccccc3)csc2s1)c1n[n+]2c(-c3ccccc3)csc2s1`, for which the GI50 in [8] was 70.6 µM (inactive); in experiment [1] it was 46.8 µM (inactive); in experiment [3], 33.3 µM (inactive); in experiment [4], > 100 µM (inactive); in experiment [9], 72.8 µM (inactive); in [5], 25.9 µM (inactive). Besides, the GI50 in experiment [6] and in experiment [7] was > 100 µM (inactive) each time.
As to `CCOc1ccccc1NC(=O)C1=C(C)NC(C)=C(C(=O)Nc2ccccc2OCC)C1c1cccc([N+](=O)[O-])c1`, the GI50 in experiment [8] was 17.7 µM (inactive); in experiment [1], 72.1 µM (inactive); in experiment [3] it was > 100 µM (inactive); in experiment [9] it was 89.1 µM (inactive); in experiment [5], 46.3 µM (inactive); in experiment [6] it was 46.8 µM (inactive). For the same molecule, in experiment [7], the GI50 is 23.5 µM (inactive).
As for `COc1ccc(C2ON(c3cccc(C)n3)CC=C2C)cc1` (configuration not stated), the GI50 in experiment [8] is 38.3 µM (inactive); in experiment [1], 26.1 µM (inactive); in experiment [2], 48.2 µM (inactive); in experiment [3], 34.6 µM (inactive); in [4], > 100 µM (inactive); in [9], 47.1 µM (inactive). The values for the GI50 in [5], in experiment [6] and in experiment [7] were 40.7 µM (inactive), 35.7 µM (inactive) and 37.4 µM (inactive), respectively.
Consider `Fc1cccc(/C=N/C23CC4CC(CC(C4)C2)C3)c1`, for which the GI50 in experiment [8], in experiment [1], in experiment [3], in experiment [4], in experiment [9] and in experiment [5] was > 100 µM (inactive) each time. The GI50 in [6] and in [7] was > 100 µM (inactive) in each case.
As for `COC(=O)C1=C(O)c2cc3c(cc2[C@H](c2cc(OC)c(OC)c(OC)c2)C1)OCO3`, the GI50 in [8] is 25.9 µM (inactive); in experiment [1], 28.6 µM (inactive); in experiment [2], 54.7 µM (inactive); in [3], 0.478 µM (active); in experiment [4] it was > 100 µM (inactive); in [9], 25.3 µM (inactive). The GI50 is 41.2 µM (inactive) in experiment [5], 34.6 µM (inactive) in experiment [6] and 87.1 µM (inactive) in experiment [7].
As to `CC1CCCC(C(O)CC2CC(=O)N(c3ccccc3)C(=O)C2)C1=O` (configuration not stated), the GI50 in experiment [1], in [3], in [4], in [9], in experiment [5] and in experiment [6] was > 100 µM (inactive) throughout. For the same molecule, the GI50 in experiment [7] is > 100 µM (inactive).
Consider `CC(=O)CC(=O)N(CCN(C(=O)CC(C)=O)c1ccccc1)c1ccccc1`, for which the GI50 in experiment [8], in [3], in experiment [4], in [9], in experiment [5] and in experiment [6] was > 100 µM (inactive) in each case. For the same molecule, the GI50 in experiment [7] is > 100 µM (inactive).
In the case of `Cc1c(C(=O)/C=C/c2ccccc2)[n+]([O-])c2ccccc2[n+]1[O-]`, the GI50 in experiment [8] was 11.9 µM (inactive); in experiment [1], 15.8 µM (inactive); in experiment [3] it was 15.7 µM (inactive); in [4] it was 18.7 µM (inactive); in experiment [9], 18 µM (inactive); in [5], 10.2 µM (inactive). Also, the GI50 was 14.2 µM (inactive) in experiment [6] and 34.3 µM (inactive) in [7].
Turning to `C\C=C/C=C/C=C/C(=O)O`, the GI50 in [1], in experiment [4], in experiment [9], in experiment [5], in [6] and in [7] was > 100 µM (inactive) in each case.
With `O=C1/C(=C/c2ccc(Cl)c(Cl)c2)CNC/C1=C\c1ccc(Cl)c(Cl)c1`, the GI50 in experiment [8] was 19.5 µM (inactive); in [1] it was 5.73 µM (inactive); in [2], 36.3 µM (inactive); in experiment [3], 22.3 µM (inactive); in [4], 33.7 µM (inactive); in experiment [9], 7.4 µM (inactive). The figures for the GI50 in experiment [6] and in [7] were 1.89 µM (inactive) and > 57.4 µM (inactive), respectively.
On to `O=[N+]([O-])c1ccc(-n2nnc(C3=NCCN3)c2-c2ccccc2)cc1`, for which the GI50 in [8], in experiment [1], in experiment [3], in [4], in experiment [9] and in experiment [5] was > 100 µM (inactive) in each case. The GI50 in experiment [6] and in [7] was > 100 µM (inactive) throughout.
In the case of `COC(=O)c1c[nH]c2nc(N3CCOCC3)nn2c1=O`, the GI50 in experiment [1], in experiment [3], in [9], in experiment [5] and in [7] was > 100 µM (inactive) in each case.
As for `O=C(c1ccccc1)C1N=NN(Cc2ccccc2[N+](=O)[O-])C1C(=O)c1ccccc1` (configuration not stated), the GI50 in experiment [1], in experiment [3], in experiment [4], in [9], in experiment [5] and in experiment [6] was > 100 µM (inactive) in each case. In addition, the GI50 in experiment [7] was > 100 µM (inactive).
`CC1=C(C(=O)NCc2ccccc2)C(c2ccc(Cl)c(Cl)c2)C(C(=O)NCc2ccccc2)=C(C)N1`: the GI50 in [8], in experiment [1], in experiment [3], in [9], in [5] and in [6] was > 100 µM (inactive) in each case. For the same molecule, the GI50 in experiment [7] was > 100 µM (inactive).
For the molecule `COc1ccc(Cc2cc(OC)c(OC)c(OC)c2)cc1O`, the GI50 is 4.73 µM (inactive) in [8]; 0.0713 µM (active) in experiment [1]; 25.2 µM (inactive) in [2]; 0.0861 µM (active) in experiment [3]; 51.6 µM (inactive) in [9]; 0.127 µM (active) in [5]. Moreover, the GI50 in experiment [6] was 0.207 µM (active).
With `CC(C)N(C(=O)C12C3C4C1C1C2C3C41I)C(C)C` (configuration not stated), the GI50 in experiment [8], in [1], in experiment [2], in [3], in experiment [5] and in experiment [7] was > 100 µM (inactive) each time.
